Structures are written as SMILES.

The nature of the test: Inhibition of TNF-alpha inducible Vascular cell adhesion molecule-1 expression.
Regarding `COC(=O)CCC(=O)Oc1c(C(C)(C)C)cc(SC(C)(C)Sc2cc(C(C)(C)C)c(O)c(C(C)(C)C)c2)cc1C(C)(C)C` [Succinic acid 2,6-di-tert-butyl-4-[1-(3,5-di-tert-butyl-4-hydroxy-phenylsulfanyl)-1-methyl-ethylsulfanyl]-phenyl ester methyl ester], the IC50 came out at 40 µM.
In the case of `CC(C)(Sc1cc(C(C)(C)C)c(O)c(C(C)(C)C)c1)Sc1cc(C(C)(C)C)c(OC(=O)CCC(=O)O)c(C(C)(C)C)c1` [Succinic acid mono-{2,6-di-tert-butyl-4-[1-(3,5-di-tert-butyl-4-hydroxy-phenylsulfanyl)-1-methyl-ethylsulfanyl]-phenyl} ester] it was 6 µM; in that of `CC(C)(Sc1cc(C(C)(C)C)c(O)c(C(C)(C)C)c1)Sc1cc(C(C)(C)C)c(OC(=O)CCCCO)c(C(C)(C)C)c1` [5-Hydroxy-pentanoicacid2,6-di-tert-butyl-4-[1-(3,5-di-tert-butyl-4-hydroxy-phenylsulfanyl)-1-methyl-ethylsulfanyl]-phenyl ester], 55 µM.
As for `CC(C)(Sc1cc(C(C)(C)C)c(O)c(C(C)(C)C)c1)Sc1cc(C(C)(C)C)c(OC(=O)COCC(=O)O)c(C(C)(C)C)c1` [{2,6-Di-tert-butyl-4-[1-(3,5-di-tert-butyl-4-hydroxy-phenylsulfanyl)-1-methyl-ethylsulfanyl]-phenoxycarbonylmethoxy}-acetic acid], the IC50 turned out to be 37 µM.
For `CC(C)(Sc1cc(C(C)(C)C)c(O)c(C(C)(C)C)c1)Sc1cc(C(C)(C)C)c(OC(=O)CCCO)c(C(C)(C)C)c1` [4-Hydroxy-butyric acid 2,6-di-tert-butyl-4-[1-(3,5-di-tert-butyl-4-hydroxy-phenylsulfanyl)-1-methyl-ethylsulfanyl]-phenyl ester], the IC50 came to 40 µM.
For the compound `CC(C)(Sc1cc(C(C)(C)C)c(O)c(C(C)(C)C)c1)Sc1cc(C(C)(C)C)c(OC(=O)CCCCCCC(=O)O)c(C(C)(C)C)c1` [Octanedioic acid mono-{2,6-di-tert-butyl-4-[1-(3,5-di-tert-butyl-4-hydroxy-phenylsulfanyl)-1-methyl-ethylsulfanyl]-phenyl} ester], inhibition was half-maximal at 45 µM (IC50).
In the case of `CC(C)(Sc1cc(C(C)(C)C)c(O)c(C(C)(C)C)c1)Sc1cc(C(C)(C)C)c(OC(=O)CCO)c(C(C)(C)C)c1` [3-Hydroxy-propionic acid 2,6-di-tert-butyl-4-[1-(3,5-di-tert-butyl-4-hydroxy-phenylsulfanyl)-1-methyl-ethylsulfanyl]-phenyl ester], the IC50 is 30 µM.
In the case of `CC(C)(Sc1cc(C(C)(C)C)c(O)c(C(C)(C)C)c1)Sc1cc(C(C)(C)C)c(OC(=O)C(=O)O)c(C(C)(C)C)c1` [Oxalic acid mono-{2,6-di-tert-butyl-4-[1-(3,5-di-tert-butyl-4-hydroxy-phenylsulfanyl)-1-methyl-ethylsulfanyl]-phenyl} ester] it was more than 50 µM.
`CC(C)(Sc1cc(C(C)(C)C)c(O)c(C(C)(C)C)c1)Sc1cc(C(C)(C)C)c(OC(=O)CO)c(C(C)(C)C)c1` [Hydroxy-acetic acid 2,6-di-tert-butyl-4-[1-(3,5-di-tert-butyl-4-hydroxy-phenylsulfanyl)-1-methyl-ethylsulfanyl]-phenyl ester]: the IC50 was 30 µM.
As for `CC(C)(Sc1cc(C(C)(C)C)c(O)c(C(C)(C)C)c1)Sc1cc(C(C)(C)C)c(OC(=O)CC(O)CO)c(C(C)(C)C)c1` (stereo not drawn) [3,4-Dihydroxy-butyric acid 2,6-di-tert-butyl-4-[1-(3,5-di-tert-butyl-4-hydroxy-phenylsulfanyl)-1-methyl-ethylsulfanyl]-phenyl ester], the IC50 worked out at 8 µM.
Under `CC(C)(Sc1cc(C(C)(C)C)c(O)c(C(C)(C)C)c1)Sc1cc(C(C)(C)C)c(OC(=O)C[C@@H](NC(=O)Cc2ccccc2)C(=O)O)c(C(C)(C)C)c1` [(R)-2-Phenylacetylamino-succinic acid 4-{2,6-di-tert-butyl-4-[1-(3,5-di-tert-butyl-4-hydroxy-phenylsulfanyl)-1-methyl-ethylsulfanyl]-phenyl} ester] stands 20 µM; under `CC(C)(Sc1cc(C(C)(C)C)c(O)c(C(C)(C)C)c1)Sc1cc(C(C)(C)C)c(OC(=O)[C@@H](O)CCC(=O)O)c(C(C)(C)C)c1` [(S)-2-Hydroxy-pentanedioic acid 1-{2,6-di-tert-butyl-4-[1-(3,5-di-tert-butyl-4-hydroxy-phenylsulfanyl)-1-methyl-ethylsulfanyl]-phenyl} ester], 25 µM.
On to `CC(=O)O/C(=C\C(=O)Oc1c(C(C)(C)C)cc(SC(C)(C)Sc2cc(C(C)(C)C)c(O)c(C(C)(C)C)c2)cc1C(C)(C)C)C(=O)O` [2,6-di(tert-butyl)-4-{1-[3,5-di(tert-butyl)-4-hydroxyphenylsulfanyl]-1-methylethylsulfanyl}phenyl 3-carboxylicacid-3-methylcarbonyloxy-(E)-2-propenoate], for which the IC50 worked out at 17 µM.
Compound `CC(C)(Sc1cc(C(C)(C)C)c(O)c(C(C)(C)C)c1)Sc1cc(C(C)(C)C)c(O)c(C(C)(C)C)c1` [2,6-di-tert-butyl-4-(2-(3,5-di-tert-butyl-4-hydroxyphenylthio)propan-2-ylthio)phenol] yielded an IC50 of more than 50 µM.
In the case of `CC(C)(Sc1cc(C(C)(C)C)c(O)c(C(C)(C)C)c1)Sc1cc(C(C)(C)C)c(OC(=O)C(F)(F)C(F)(F)C(F)(F)C(=O)O)c(C(C)(C)C)c1` [2,2,3,3,4,4-Hexafluoro-pentanedioic acid mono-{2,6-di-tert-butyl-4-[1-(3,5-di-tert-butyl-4-hydroxy-phenylsulfanyl)-1-methyl-ethylsulfanyl]-phenyl} ester] it was 100 µM.
Regarding `CC(C)(Sc1cc(C(C)(C)C)c(OC(=O)CCC(=O)O)c(C(C)(C)C)c1)Sc1cc(C(C)(C)C)c(OC(=O)CCC(=O)O)c(C(C)(C)C)c1` [Succinic acid mono-(2,6-di-tert-butyl-4-{1-[3,5-di-tert-butyl-4-(3-carboxy-propionyloxy)-phenylsulfanyl]-1-methyl-ethylsulfanyl}-phenyl) ester], the IC50 was more than 50 µM.
With `CC(C)(Sc1cc(C(C)(C)C)c(O)c(C(C)(C)C)c1)Sc1cc(C(C)(C)C)c(OC(=O)CCCC(=O)O)c(C(C)(C)C)c1` [Pentanedioic acid mono-{2,6-di-tert-butyl-4-[1-(3,5-di-tert-butyl-4-hydroxy-phenylsulfanyl)-1-methyl-ethylsulfanyl]-phenyl} ester], the IC50 turned out to be 9 µM.
Under `CC(C)(CO)CC(=O)Oc1c(C(C)(C)C)cc(SC(C)(C)Sc2cc(C(C)(C)C)c(O)c(C(C)(C)C)c2)cc1C(C)(C)C` [4-Hydroxy-3,3-dimethyl-butyric acid 2,6-di-tert-butyl-4-[1-(3,5-di-tert-butyl-4-hydroxy-phenylsulfanyl)-1-methyl-ethylsulfanyl]-phenyl ester] stands 110 µM.

These data come from BindingDB's records for doi:10.1016/s0960-894x(02)00516-4 (Atherogenics, 2002).
